Measured values as given in patent publication US5604215A, “Steroid sulphatase inhibitors” (Imperial College of Science, Technology and Medicine, priority 1991, dated 1997).
Read-outs that look alike come from different tables or passages of the source.

Experiments:
[1] = biological target: T1, steroid sulphatase (Steryl Sulphatase EC 3.1.6.2) in MCF-7 cells (Homo sapiens, UniProt P08842); experiment: Inhibition of Steroid Sulphatase Activity in MCF-7 cells (intact MCF-7 human breast cancer cells, [6,7-^3 H]oestrone-3-sulphate substrate); assay type: cell-based; settings: for Steroid Sulphatase Activity in MCF-7 cells in the presence of oestrone-3-sulphonates: 10 μM, mean ± 1 S.D. n = 3, control 80.1 ± 3.3 (E1 -3-MeS: control 46.5 ± 2.3), *p ≤ 0.05 (E1 -3-BuS), **p ≤ 0.01 (EtS, CamS, MeS), E1 -3-MePhS: mean of 2 estimates, control 71.3; for inhibition at 10 µM: MCF7, Table II, inhibition over control incubations, read-out: % reduction over control (% inhibition), oestrone-3-sulphonates
T1 construct: intact MCF-7 human breast cancer cells; endogenous in cells; host or cells: MCF-7 human breast cancer cells
T1 sequence (P08842 22-583): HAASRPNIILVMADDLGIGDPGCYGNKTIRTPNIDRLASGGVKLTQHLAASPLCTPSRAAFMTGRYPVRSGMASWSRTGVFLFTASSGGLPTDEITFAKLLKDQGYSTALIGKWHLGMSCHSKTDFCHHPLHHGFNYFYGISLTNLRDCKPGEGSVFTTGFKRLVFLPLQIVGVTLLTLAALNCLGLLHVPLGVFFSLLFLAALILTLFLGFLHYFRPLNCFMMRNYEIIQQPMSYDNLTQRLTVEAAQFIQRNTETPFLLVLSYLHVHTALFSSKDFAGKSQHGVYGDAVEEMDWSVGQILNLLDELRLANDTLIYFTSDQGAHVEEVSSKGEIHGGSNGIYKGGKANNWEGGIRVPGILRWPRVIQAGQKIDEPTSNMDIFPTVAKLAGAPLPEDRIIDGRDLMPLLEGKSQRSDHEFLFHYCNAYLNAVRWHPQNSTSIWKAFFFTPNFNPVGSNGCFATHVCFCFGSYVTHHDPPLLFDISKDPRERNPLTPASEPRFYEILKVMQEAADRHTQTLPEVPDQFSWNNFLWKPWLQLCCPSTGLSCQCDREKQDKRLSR

[2] = biological target: T2, steroid sulphatase in placental microsomes (Homo sapiens, UniProt P08842); experiment: Inhibition of Steroid Sulphatase Activity in Placental Microsomes ([6,7-^3 H]oestrone-3-sulphate substrate); assay type: biochemical; settings: 20 μM oestrone-3-sulphate, 100 μg/ml protein, 20 minutes, 37° C., calculated IC50
T2 construct: Sulphatase-positive human placenta from normal term pregnancies; from tissue; host or cells: human term placenta (Obstetric Ward, St. Mary's Hospital, London), 2000 g supernatant of the homogenate
T2 sequence (P08842 22-583): T1 sequence (P08842 22-583)
Procedure: Sulphatase-positive human placenta from normal term pregnancies (Obstetric Ward, St. Mary's Hospital, London) were thoroughly minced with scissors and washed once with cold phosphate buffer (pH 7.4, 50 mM) then re-suspended in cold phosphate buffer (5 ml/g tissue). Homogenisation was accomplished with an Ultra-Turrax homogeniser, using three 10 second bursts separated by 2 minute cooling periods in ice. Nuclei and cell debris were removed by centrifuging (4° C.) at 2000 g for 30 minutes and portions (2 ml) of the supernatent were stored at -20° C. The protein concentration of the supernatents was determined by the method of Bradford (Anal. Biochem., 72, 248-254 (1976)).
Incubations (1 ml) were carried out using a protein concentration of 100 μg/ml, substrate concentration of 20 μM [6,7-^3 H]oestrone-3-sulphate (specific activity 60 Ci/mmol from New England Nuclear, Boston, Mass., U.S.A.) and an incubation time of 20 minutes at 37° C. The following oestrone-3-phosphonates were added to separate samples at a range of concentrations individually adjusted to span the 50% inhibition level:
After incubation each sample was cooled and the medium (1 ml) was pipetted into separate tubes containing [^14 C]oestrone (7×10^3 dpm) (specific activity […] from Amersham International Radiochemical Centre, Amersham, U.K.). The mixture was shaken thoroughly for 30 seconds with toluene (5 ml). […] A portion (2 ml) of the organic phase was removed, evaporated and the ^3 H and ^14 C content of the residue determined by scintillation spectrometry. The mass of oestrone-3-sulphate hydrolysed was calculated from the ^3 H counts obtained (corrected for the volumes of medium and organic phase used, and for recovery of [^14 C]oestrone added) and the specific activity of substrate.
Results for steroid sulphatase activity are expressed in Table III as calculated IC50 values (i.e. the concentration of oestrone-3-phosphonate which produced 50% inhibition in relation to control). […]

[3] = biological target: T1, steroid sulphatase (Steryl Sulphatase EC 3.1.6.2) in MCF-7 cells; experiment: Inhibition of Steroid Sulphatase Activity in MCF-7 cells (intact MCF-7 human breast cancer cells, [6,7-^3 H]oestrone-3-sulphate substrate); assay type: cell-based
Procedure: Steroid sulphatase is defined as: Steryl Sulphatase EC 3.1.6.2.
Steroid sulphatase activity was measured in vitro using intact MCF-7 human breast cancer cells. This hormone dependent cell line is widely used to study the control of human breast cancer cell growth. […] Up to 30 replicate 25 cm^2 tissue culture flasks were seeded with approximately 1×10^5 cells/flask using the above medium. Cells were grown to 80% confluency and medium was changed every third day.
Intact monolayers of MCF-7 cells in triplicate 25 cm^2 tissue culture flasks were washed with Earle's Balanced Salt Solution (EBSS from ICN Flow, High Wycombe, U.K.) and incubated for […] at 37° C. with 5 pmol (7×10^5 dpm) [6,7-^3 H]oestrone-3-sulphate (specific activity 60 Ci/mmol from New England Nuclear, Boston, Mass., U.S.A.) in serum-free MEM (2.5 ml) together with 10 μM of each of four oestrone-3-phosphonates:
After incubation each flask was cooled and the medium (1 ml) was pipetted into separate tubes containing [^14 C]oestrone (7×10^3 dpm) (specific activity […] from Amersham International Radiochemical Centre, Amersham, U.K.). The mixture was shaken thoroughly for 30 seconds with toluene (5 ml). […] A portion (2 ml) of the organic phase was removed, evaporated and the ^3 H and ^14 C content of the residue determined by scintillation spectrometry. The mass of oestrone-3-sulphate hydrolysed was calculated from the ^3 H counts obtained (corrected for the volumes of the medium and organic phase used, and for recovery of [^14 C]oestrone added) and the specific activity of the substrate. […] The number of cell nuclei per flask was determined using a Coulter Counter after treating the cell monolayers with Zaponin.
Results are expressed as the mean ±1 S.D. of the total product (oestrone+oestradiol) formed during the incubation period (20 hours) calculated for 10^6 cells and as a percentage reduction (inhibition) over incubations containing no oestrone-3-phosphonate for values showing statistical significance. […]

[4] = Table IV, read-out: Steroid Sulphatase Activity in placental microsomes in the presence of oestrone-3-sulphonates (IC50)

CCCCS(=O)(=O)Oc1ccc2c(c1)CC[C@@H]1[C@@H]2CC[C@]2(C)C(=O)CC[C@@H]12 [E1-3-BuS, oestrone-3-n-butylsulphonate]
Steroid Sulphatase Activity in MCF-7 cells in the presence of oestrone-3-sulphonates [1]: 66.8 ± 3.3 fmol/20 hr/10^6 cells | inhibition at 10 µM [1]: 16.6%

CC1(C)C2CCC1(CS(=O)(=O)Oc1ccc3c(c1)CC[C@@H]1[C@@H]3CC[C@]3(C)C(=O)CC[C@@H]13)C(=O)C2 (stereo partly drawn) [E1-3-CamS, oestrone-3-camphorylsulphonate]
Steroid Sulphatase Activity in MCF-7 cells in the presence of oestrone-3-sulphonates [1]: 62.7 ± 1.8 fmol/20 hr/10^6 cells | inhibition at 10 µM [1]: 21.7%

CCS(=O)(=O)Oc1ccc2c(c1)CC[C@@H]1[C@@H]2CC[C@]2(C)C(=O)CC[C@@H]12 [E1-3-EtS, oestrone-3-ethylsulphonate]
Steroid Sulphatase Activity in MCF-7 cells in the presence of oestrone-3-sulphonates [1]: 58.4 ± 1.9 fmol/20 hr/10^6 cells | inhibition at 10 µM [1]: 27.1%

C[C@]12CC[C@@H]3c4ccc(O[PH](=O)O)cc4CC[C@H]3[C@@H]1CCC2=O [E1-3-HP, oestrone-3-hydrogen-phosphonate]
IC50 ([2]; Table III, read-out: Steroid Sulphatase Activity in placental microsomes in the presence of oestrone-3-phosphonates (IC50)): 5000 µM | inhibition at 10 µM ([3]; MCF7, Table I, inhibition over incubations containing no oestrone-3-phosphonate, read-out: % reduction over control (% inhibition), oestrone-3-phosphonates): 80.1%

Cc1ccc(S(=O)(=O)Oc2ccc3c(c2)CC[C@@H]2[C@@H]3CC[C@]3(C)C(=O)CC[C@@H]23)cc1 [E1-3-MePhS, oestrone-3-p-toluenesulphonate]
inhibition at 10 µM [1]: 90.5% | IC50 [2, 4]: 130 µM

C[C@]12CC[C@@H]3c4ccc(OS(C)(=O)=O)cc4CC[C@H]3[C@@H]1CCC2=O [E1-3-MeS, oestrone-3-methylsulphonate]
Steroid Sulphatase Activity in MCF-7 cells in the presence of oestrone-3-sulphonates [1]: 21.3 ± 3.5 fmol/20 hr/10^6 cells | inhibition at 10 µM [1]: 54.2% | IC50 [2, 4]: 205 µM

C[C@]12CC[C@@H]3c4ccc(OP(=O)(O)c5ccccc5)cc4CC[C@H]3[C@@H]1CCC2=O [E1-3-PhP, oestrone-3-phenylphosphonate]
% reduction over control (% inhibition), oestrone-3-phosphonates ([3]; 10 μM, Table I, inhibition over incubations containing no oestrone-3-phosphonate): 70.3% | Steroid Sulphatase Activity in MCF-7 cells in the presence of oestrone-3-phosphonates ([3]; 10 μM, mean ± 1 S.D. n = 3, control 46.5 ± 2.3, ***p ≤ 0.001, E1 -3-HP: mean of 2 estimates, control 71.3): 13.8 ± 0.7 fmol/20 hr/10^6 cells
